Values quoted from earlier work in patent publication US12070523B2, “Sanitization of an article using in situ electrolysis” (APPLIED BIOCIDE GMBH, priority 2022, dated 2024).

In the case of `[O-][Cl+2]([O-])O` [chlorate], the “ADI (allowable daily intake)” value (as ClO3^−) is listed as 0.0024 mg/kg BW·day and the “Maximum residue level (MRL), smallest MRL used as worst-case” value (chronic exposure, Commission Regulation (EU) 2020/749) is listed as 0.05 mg/kg BW·day.
